Source: patent publication US20110136163A1, “Method of Toxicological Assessment” (priority 2008, published 2011)
“Also recorded” adds a separate entry of the source. *1 amine or outer side, *2 acyl side, *3 side chain or, on linkers, in order; H or OH if unused. Where a SMILES comes first, the peptide text is derived from it. Bridges are numbered along the chain shown (N, C = ends). [ ]: non-standard residue; d: D form. Adda = CO[C@@H](Cc1ccccc1)[C@@H](C)/C=C(C)/C=C/[C@H](N[*:1])[C@H](C)C(=O)[*:2]; dAsp(3S-Me) = C[C@H](C(=O)[*:3])[C@@H](N[*:1])C(=O)[*:2]; d(γGlu) = O=C(O)[C@@H](CCC(=O)[*:2])N[*:1]; NMeDha = C=C(NC)C(=O)O

Experiments:
[1] = tested on: Primary rat hepatocytes; format: cell-based
[2] = tested on: HepG2 cells; assay: Western blot of protein phosphorylation (anti-phospho-serine) in HepG2 cells; format: cell-based
Protocol: FIG. 2. Western blot analysis of HepG2 cells treated with MCLR in the presence of EndoPorter for 24 h, primary antibodies used were anti-phospho-serine. Blot analysis show dependence of protein phosphorylation on MCLR concentration.
A number of other markers of cellular function were also investigated for their alterations in response to MCLR treatment of cells in the presence of transport reagent. […] Metabolic parameters such as intracellular levels of ATP and NAD(P)H were seen unchanged.

[3] = tested on: Jurkat cells; assay: O2 consumption toxicity assay in Jurkat cells, with and without transport reagent; format: cell-based
[4] = tested on: isolated rat liver mitochondria; format: biochemical
[5] = tested on: HepG2 cells; assay: O2 consumption toxicity assay in HepG2 cells, with and without transport reagent; format: cell-based
[6] = tested on: cells; format: cell-based
[7] = tested on: Jurkat cells; assay: ATP content in Jurkat cells, with and without transport reagent; format: cell-based
Text: A number of other transport reagents, toxicants, cell models and parameters of cellular function were examined, using the general assay format described in Example 1.

Row | Compound | Concentration at which parameters of cellular function were affected [1] | O2 consumption, observed effect [1] | IC50 ([1]; read-out: O2 consumption, IC50) | Protein phosphorylation/dephosphorylation in Western blots [2] | Concentration above which significant effects on O2 consumption were seen [3] | O2 consumption / toxicity, observed effect [3] | O2 consumption, observed effect [3] | Effect on O2 consumption of isolated mitochondria [4] | Concentration above which significant effects on O2 consumption were seen [5] | Peak of bell-shape dose response of O2 consumption [5] | Intracellular level of ATP [6] | Intracellular level of NAD(P)H [6] | ATP content, observed effect [7]
1 | C=C1C(=O)N[C@H](C)C(=O)N[C@@H](CC(C)C)C(=O)N[C@@H](C(=O)O)[C@H](C)C(=O)N[C@@H](CCCNC(=N)N)C(=O)N[C@@H](/C=C/C(C)=C/[C@H](C)[C@H](Cc2ccccc2)OC)[C@H](C)C(=O)N[C@@H](C(=O)O)CCC(=O)N1C [MCLR, Microcystin-LR] (R[Adda][d(γGlu)][NMeDha][dA]L[dAsp(3S-Me)]-OH; lactam N-7) | ≥ 0.5 nM | dose-dependent decreases in oxygen consumption | 2.74 nM | altered protein phosphorylation/dephosphorylation | above 0.1 nM | strong toxicity; also recorded: respiration decreased | no detectable toxicity; also recorded: No effect at 10 μM | uncoupling effect | above 0.1 nM | around 0.5 nM | unchanged | unchanged | No effect at 10 μM; also recorded: Dose dependent decrease
2 | Aflatoxin B1 |  |  |  |  |  | increased toxicity |  |  |  |  |  |  | 
